Measured values: paper PMC10439952, “JT002, a small molecule inhibitor of the NLRP3 inflammasome for the treatment of autoinflammatory disorders” (Scientific Reports, 2023)

What was measured:
NLRP3 inflammasome [1] = target: NLRP3 inflammasome (Homo sapiens, UniProt Q96P20); experiment: Inhibition of IL-1β production in human PBMCs stimulated by LPS + nigericin; type: cell-based; set-up: host or cells: human PBMCs; fresh heparinised human whole blood from healthy volunteers; settings: Human PBMC, read-out: Geo Av IC50, IL-1β
Chain of NLRP3 inflammasome (Homo sapiens, UniProt Q96P20) (Q96P20 whole entry): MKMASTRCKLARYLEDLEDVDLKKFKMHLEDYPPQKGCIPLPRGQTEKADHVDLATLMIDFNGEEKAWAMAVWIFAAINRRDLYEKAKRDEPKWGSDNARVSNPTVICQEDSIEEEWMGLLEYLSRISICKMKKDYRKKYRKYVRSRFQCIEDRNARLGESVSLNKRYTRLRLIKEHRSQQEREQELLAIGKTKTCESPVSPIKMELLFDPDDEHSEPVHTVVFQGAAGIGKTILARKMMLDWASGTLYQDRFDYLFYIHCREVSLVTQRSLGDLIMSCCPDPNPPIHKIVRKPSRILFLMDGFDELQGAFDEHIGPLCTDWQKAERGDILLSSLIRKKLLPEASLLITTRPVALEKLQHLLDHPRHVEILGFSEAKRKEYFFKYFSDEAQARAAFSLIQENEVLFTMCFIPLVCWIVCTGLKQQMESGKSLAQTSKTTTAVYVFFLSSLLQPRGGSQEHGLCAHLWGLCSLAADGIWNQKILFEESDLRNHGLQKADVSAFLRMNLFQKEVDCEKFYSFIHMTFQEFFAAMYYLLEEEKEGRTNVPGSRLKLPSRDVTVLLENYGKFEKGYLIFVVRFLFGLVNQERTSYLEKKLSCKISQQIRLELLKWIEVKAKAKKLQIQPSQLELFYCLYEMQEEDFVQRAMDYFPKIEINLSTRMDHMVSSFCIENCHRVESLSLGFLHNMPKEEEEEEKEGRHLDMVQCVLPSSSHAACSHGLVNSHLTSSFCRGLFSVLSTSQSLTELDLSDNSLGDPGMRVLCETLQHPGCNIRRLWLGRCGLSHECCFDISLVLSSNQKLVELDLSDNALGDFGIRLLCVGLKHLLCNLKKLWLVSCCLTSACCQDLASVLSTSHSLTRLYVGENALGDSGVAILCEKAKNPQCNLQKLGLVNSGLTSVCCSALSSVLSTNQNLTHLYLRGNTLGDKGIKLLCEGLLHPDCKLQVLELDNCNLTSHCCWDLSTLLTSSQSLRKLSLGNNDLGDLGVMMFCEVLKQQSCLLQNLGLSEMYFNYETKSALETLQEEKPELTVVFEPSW
Experimental: (§1) Inflammasome activation and whole blood assays were essentially carried out as described earlier. Details can be found in the supplementary information section accompanying this publication. A protocol for blood draws from healthy volunteers and use of the blood in preclinical assays was approved by Western Institutional Review Board, Inc (Puyallup, WA, USA). Informed consent was obtained from each donor prior to the first blood draw.
(§2) Cell viability was determined by addition of an equal volume of CellTiter-Glo® 2.0 reagent (Promega) to the remaining cells/supernatant in each well. Intracellular Caspase-1 activity was measured using the Caspase-Glo® assay (Promega) according to the manufacturer’s instructions. The biochemical capsase-1 assay was conducted at Reaction Biology Corporation (Malvern, USA). Human IL-1β, IL-1α, and TNFα and mouse IL-1β were measured in cell culture supernatants using homogeneous time resolved fluorescence assay kits (HTRF, Cisbio, Codolet, France). Human IL-18 was measured in cell culture supernatants using an ELISA kit (R&D Systems, Minneapolis, MN, USA). Plasma IL-1β concentrations were determined by Quantikine® ELISA (R&D Systems, Minneapolis, MN).
(§3) 4H). MS: m/z 433.1 (M+H+). […]

Lipophilicity comparison = type: physicochemical; settings: compared with MCC950
NLRP3 inflammasome [2] = target: T1, NLRP3 inflammasome (Mus musculus, UniProt Q8R4B8); experiment: Inhibition of IL-1β production in mouse PBMCs stimulated by LPS + nigericin; type: cell-based; set-up: host or cells: mouse PBMCs; mouse bone-marrow derived macrophages; mouse whole blood (C57BL/6 in the ex vivo study); settings: Mouse PBMC, read-out: Geo Av IC50, IL-1β
T1 sequence (Q8R4B8 whole entry): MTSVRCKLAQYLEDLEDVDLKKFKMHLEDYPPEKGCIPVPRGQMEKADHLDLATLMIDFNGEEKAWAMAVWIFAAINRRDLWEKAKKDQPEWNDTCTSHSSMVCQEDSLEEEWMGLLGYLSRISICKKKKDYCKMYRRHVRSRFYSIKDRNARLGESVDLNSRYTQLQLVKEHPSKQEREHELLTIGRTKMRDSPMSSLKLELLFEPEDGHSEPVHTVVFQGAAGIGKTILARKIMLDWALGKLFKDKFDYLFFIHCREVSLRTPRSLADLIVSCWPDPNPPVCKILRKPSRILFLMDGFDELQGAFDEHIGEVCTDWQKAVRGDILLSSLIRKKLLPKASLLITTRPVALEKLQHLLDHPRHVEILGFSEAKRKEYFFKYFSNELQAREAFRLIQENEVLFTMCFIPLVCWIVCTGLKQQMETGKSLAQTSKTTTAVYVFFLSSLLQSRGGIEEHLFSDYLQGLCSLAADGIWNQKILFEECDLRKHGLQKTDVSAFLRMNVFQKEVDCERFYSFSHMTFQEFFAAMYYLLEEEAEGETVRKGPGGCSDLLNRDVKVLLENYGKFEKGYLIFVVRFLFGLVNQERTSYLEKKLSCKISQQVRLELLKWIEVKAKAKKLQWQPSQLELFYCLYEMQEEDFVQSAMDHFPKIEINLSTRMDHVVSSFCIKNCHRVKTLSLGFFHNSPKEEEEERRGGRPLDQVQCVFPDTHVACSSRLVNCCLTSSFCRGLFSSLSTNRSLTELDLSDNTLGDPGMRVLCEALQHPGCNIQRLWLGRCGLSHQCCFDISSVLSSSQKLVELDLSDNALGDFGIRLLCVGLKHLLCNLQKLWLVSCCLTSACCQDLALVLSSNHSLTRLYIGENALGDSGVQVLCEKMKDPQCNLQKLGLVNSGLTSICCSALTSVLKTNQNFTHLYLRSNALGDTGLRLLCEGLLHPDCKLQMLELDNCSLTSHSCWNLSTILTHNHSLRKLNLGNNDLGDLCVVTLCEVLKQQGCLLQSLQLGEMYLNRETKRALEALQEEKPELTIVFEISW
Experimental: as §1, §2, §3

TNFα production = TNFα production in mouse BMDMs stimulated by LPS + nigericin; type: cell-based; settings: Mouse BMDM, read-out: Geo Av IC50, TNFα
Source text: as §1
(§4) 4H). MS: m/z 433.1 (M+H+).
(§5) Inflammasome activation.PBMCs (iXCells Biotechnologies, San Diego, USA) were thawed the day before the assay and seeded in complete medium (RPMI 1640 medium with GlutaMAX, supplemented with an additional 2.5 g/L D-glucose, 10% Fet al Bovine Serum, 100 mM Sodium Pyruvate, 1% Penicillin/Streptomycin, 10 mM HEPES and 0.05 mM β -mercaptoethanol) in polystyrene V-bottom 96-well plates at 5x10^4 cells per well and incubated overnight at 37°C with 5% CO 2. […]
(§6) flagellin, prepared in Opt iMEM and combined with Lipofectamine 2000. […] After priming Nlrp3 -/- mBMDMs with 100 ng/mL of LPS for 3- 5 h, cells were exposed to 100 ng/mL L18- MDP and incubated overnight.At the end of the incubation period of the assays above, plates were briefly centri fuged and hal f of the cell culture supern atant remo ved and either analysed i mmediately or stored at - 80°C for subs equent cytokine […]

NLRP3 inflammasome [3] = target: T1, NLRP3 inflammasome; experiment: Inhibition of IL-1β production in mouse BMDMs stimulated by LPS + cholesterol crystals; type: cell-based; set-up: host or cells: mouse PBMCs; mouse bone-marrow derived macrophages; mouse whole blood (C57BL/6 in the ex vivo study); settings: Mouse BMDM, read-out: Geo Av IC50, IL-1β
Experimental: as §1, §2, §3

NLRP1 inflammasome = experiment: IL-1β production in Nlrp3-/- mouse BMDMs after NLRP1 activation (LPS + L18-MDP); type: cell-based; settings: mBMDMs, concentrations up to 10 µM
NLRP3 inflammasome [4] = target: T2, NLRP3 inflammasome (Rattus norvegicus, UniProt D4A523); experiment: Inhibition of IL-1β production in rat PBMCs stimulated by LPS + nigericin; type: cell-based; settings: Rat PBMC, read-out: Geo Av IC50, IL-1β
T2 construct: host or cells: rat PBMCs
T2 sequence (D4A523 whole entry): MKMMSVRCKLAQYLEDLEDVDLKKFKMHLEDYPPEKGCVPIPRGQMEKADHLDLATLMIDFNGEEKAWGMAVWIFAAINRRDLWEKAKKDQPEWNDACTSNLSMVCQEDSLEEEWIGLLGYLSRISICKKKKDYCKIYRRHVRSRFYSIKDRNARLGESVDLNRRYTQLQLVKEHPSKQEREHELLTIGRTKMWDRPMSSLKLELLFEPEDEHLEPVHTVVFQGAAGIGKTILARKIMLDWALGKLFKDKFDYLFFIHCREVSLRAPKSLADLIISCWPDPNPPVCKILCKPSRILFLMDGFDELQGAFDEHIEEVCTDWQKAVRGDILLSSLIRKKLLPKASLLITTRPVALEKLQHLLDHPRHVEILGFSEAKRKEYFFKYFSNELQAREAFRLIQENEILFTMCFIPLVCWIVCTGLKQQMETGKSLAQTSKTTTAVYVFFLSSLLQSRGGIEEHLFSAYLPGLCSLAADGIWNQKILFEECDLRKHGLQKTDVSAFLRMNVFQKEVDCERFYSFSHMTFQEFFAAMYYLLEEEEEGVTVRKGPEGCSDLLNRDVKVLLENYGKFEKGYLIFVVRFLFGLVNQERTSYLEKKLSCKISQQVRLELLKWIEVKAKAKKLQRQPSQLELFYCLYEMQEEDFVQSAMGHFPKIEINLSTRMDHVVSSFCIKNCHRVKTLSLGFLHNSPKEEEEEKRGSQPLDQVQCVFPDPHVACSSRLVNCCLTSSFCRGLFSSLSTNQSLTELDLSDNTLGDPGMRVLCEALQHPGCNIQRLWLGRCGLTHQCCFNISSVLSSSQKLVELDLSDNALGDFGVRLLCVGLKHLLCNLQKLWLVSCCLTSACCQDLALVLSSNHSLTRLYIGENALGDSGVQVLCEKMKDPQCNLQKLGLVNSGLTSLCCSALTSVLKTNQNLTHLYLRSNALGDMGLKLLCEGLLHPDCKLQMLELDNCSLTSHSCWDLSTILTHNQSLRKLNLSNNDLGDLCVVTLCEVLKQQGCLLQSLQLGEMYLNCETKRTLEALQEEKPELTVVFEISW
Source text: as §1, §4, §5, §6

For `CO[C@@H]1COc2c(S(=O)(=O)NC(=O)Nc3c4c(cc5c3CCC5)CCC4)cnn2C1` [JT002], the IC50 (NLRP3 inflammasome [1]) was 6 nM, the lipophilicity (Lipophilicity comparison) was “lower lipophilicity than MCC950” and the IC50 (NLRP3 inflammasome [2]) was 25 nM. For the same molecule, the IC50 (TNFα production) was greater than 10 µM, the IC50 (NLRP3 inflammasome [3]) was 2 nM and the “inhibition of IL-1β production after NLRP1 activation” value (NLRP1 inflammasome) was “no inhibition of IL-1β production”. For the same molecule, the IC50 (NLRP3 inflammasome [4]) was 159 nM.
